Measured values published in US20210145772A1, “CAP[…] USE IN TREATING ACRAL LICK GRANULOMA” (Centrexion Therapeutics Corporation, priority 2014, published 2021).
Where “and” joins values, the source holds several entries; their conditions need not be identical. Equal values may be shown once.

Experiments:
Assay type in all cases: in vivo, dog (canine)
acral lick granuloma [1] = assay: Lesion size: measured long and short axis, surface area approximated as an ellipse
Procedure: (§1) Six dogs suffering from acral lick granuloma were treated using injectable capsaicin and evaluated.
(§2) After the screening visit, the dog returned to the site on Day 0 for injection with Study Drug. As a general procedure, dogs were anesthetized using a short-acting anesthetic protocol before injection of the Study Drug. If propofol was used, it was used for induction prior to gas anesthesia but not as a drip to maintain anesthesia. The area to be injected with Study Drug was prepared using site disinfection procedures that are routinely used at veterinary hospital.
(§3) The Study Drug was trans-capsaicin in a solution of polyethylene glycol 300 (PEG 300) and water for injection. The Study Drug was prepared by diluting (i) a solution of PEG 300 containing trans-capsaicin at a concentration of 2 mg/mL (hereinafter “Solution A”) with (ii) sterile water for injection. Solution A was diluted with a volume of sterile water for injection (WFI) in an amount equal to 4 to 5-fold to produce the Study Drug.
(§4) Study Drug was administered to the dog by subcutaneous injection at several locations under the index acral lick granuloma. The goal of the injection was to infiltrate the Study Drug at the junction between the granuloma and healthy tissue throughout the area of the lesion. The dose of trans-capsaicin per lesion to be administered was approximately 1.5 μg of trans-capsaicin per mm^2 of lesion. Each lesion to be injected was measured (mm) for long axis (length) and short axis (width). The approximate surface area was calculated based on an elliptical shape. Based on the calculated lesion areas, the calculated dose of trans-capsaicin per lesion ranged from <0.10 mg to 2.65 mg of trans-capsaicin. Dog reactions during and immediately after the injection procedure were recorded in the study records. Injections of Study Drug were performed using a 22 gauge needle.
(§5) Physical examinations of the dog including the injection site observation were conducted. General and dermatologic exams, including a description, measurements (dimensions), and digital photograph of the index lesion were collected.
(§6) An illustration of the lesion(s) from each dog prior to injection with Study Drug are provided in FIG. 1, along with illustrations of the lesions from each dog at Day 14 and separately at Day 28 of the study. FIG. 2 provides illustrations of the lesions from each dog prior to injection of Study Drug, at Day 14 of the study, and at Day 28 of the study, where the lesion is traced for Adobe Acrobat IX determination of lesion area.

acral lick granuloma [2] = assay: Client Specific Outcome Measure (CSOM), owner-scored, in dogs with acral lick granuloma after subcutaneous injection
Procedure: A clinical study was performed to evaluate the effect of injectable capsaicin in treating acral lick granuloma in canines. A total of six dogs suffering from acral lick granuloma were treated using injectable capsaicin and evaluated. Experimental procedures are described in Part I below.
as §1
At a Screening visit, the index lesion was examined. The diagnosis of the index granuloma was made based on characteristics of the lesion and history of licking. Veterinary personnel reviewed with each dog owner the concept and implementation of an Owner-derived efficacy assessment, the Client Specific Outcome Measure (CSOM, based loosely on the CSOM developed for use with osteoarthritis (Gingerich D, and Strobel J. in “Use of client-specific outcome measures to assess treatment effects in geriatric, arthritic dogs: Controlled clinical evaluation of a nutraceutical,” Vet. Ther. (2003) vol. 4, pages 56-66)), to assess the severity and progression of licking behavior associated with the acral lick granuloma. Up to three activities were identified and scored relative to their state prior to the acral lick granuloma (1-no problem, 2-mildly problematic, 3-moderately problematic, 4-severely problematic, 5-impossible). The CSOM assessment was completed at Screening Day (i.e., seven days before administration of capsaicin, also referred to as Day −7), Day 0, Day 14 (±2), and Day 28 (±3) until study termination.
as §2, §3, §4
As noted above, the severity of licking behavior caused by the acral lick granuloma was measured by the owner using a modification of a previously published system (Gingerich and Strobel 2003 noted above). During Screening, dog owners were interviewed by veterinary personnel trained in CSOM assessments (e.g., Study Coordinator) to identify one to three activities that have changed as a result of the acral lick granuloma. Activities focused on the use of the limb(s) with the index lesion and on behavioral responses. For example, excessive licking of the granuloma would be a behavioral response. […]

acral lick granuloma [3] = assay: Lesion surface area from traced lesion photographs (Adobe Acrobat measurement tool)
Description: FIG. 2 provides illustrations of the lesion(s) from each dog prior to injection of Study Drug, at Day 14, and at Day 28 of the study, where the lesion is traced for Adobe Acrobat IX determination of lesion area, as further described in Example 1 herein.
as §2, §3, §4, §5, §6

[4] = individual lesion of individual dog

COc1cc(CNC(=O)CCCC/C=C/C(C)C)ccc1O [Study Drug, trans-capsaicin]
Lesion surface area (ellipse) Delta Day 14-baseline (acral lick granuloma [1]; average of 13 lesions): 49 | Lesion surface area (ellipse) Delta Day 28-baseline (acral lick granuloma [1]; average of 13 lesions): 200 | Lesion surface area (ellipse) Percent Change to Day 14 (acral lick granuloma [1]; average of 13 lesions): 6% | Lesion surface area (ellipse) Percent Change to Day 28 (acral lick granuloma [1]; average of 13 lesions): 15% | Lesion surface area Day 14 (approximation of an ellipse) (acral lick granuloma [1]; average of 13 lesions): 533 sq mm | Lesion surface area Day 28 (approximation of an ellipse) (acral lick granuloma [1]; average of 13 lesions): 684 sq mm | Lesion surface area (ellipse) Delta Day 14-baseline (acral lick granuloma [1]; individual lesion): −55 and 291 and 0 and −63 and 163 and 329 and −188 and −115 and 57 and −48 and 263 and 55 and −51 | Lesion surface area (ellipse) Delta Day 28-baseline (acral lick granuloma [1]; individual lesion): −43 and 134 and −20 and −82 and 734 and 1250 and −75 and 151 and 148 and −7 and 393 and 55 and −39 | Lesion surface area (ellipse) Percent Change to Day 14 (acral lick granuloma [1]; individual lesion): −100% and 285% and 0% and −76% and 16% and 62% and −47% and −19% and 20% and −14% and 15% and 5% and −65% | Lesion surface area (ellipse) Percent Change to Day 28 (acral lick granuloma [1]; individual lesion): −79% and 131% and −100% (2×) and 71% and 235% and −18% and 25% and 54% and −2% and 22% and 5% and −50% | Lesion surface area Day 14 (approximation of an ellipse) (acral lick granuloma [1]; individual lesion): 0 sq mm and 393 sq mm and 20 sq mm (2×) and 1195 sq mm and 862 sq mm and 216 sq mm and 483 sq mm and 334 sq mm and 292 sq mm and 2030 sq mm and 1060 sq mm and 27 sq mm | Lesion surface area Day 28 (approximation of an ellipse) (acral lick granuloma [1]; individual lesion): 12 sq mm and 236 sq mm and 0 sq mm (2×) and 1766 sq mm and 1782 sq mm and 329 sq mm and 749 sq mm and 425 sq mm and 333 sq mm and 2160 sq mm and 1060 sq mm and 39 sq mm | Lesion size Day 14-long axis (acral lick granuloma [1]; [4]): 0 mm and 25 mm and 5 mm (2×) and 65.3 mm and 46.5 mm and 18.2 mm and 39.7 mm and 29.7 mm and 25.3 mm and 55 mm and 45 mm and 7 mm | Lesion size Day 14-short axis (acral lick granuloma [1]; [4]): 0 mm and 20 mm and 5 mm (3×) and 23.3 mm and 23.6 mm and 15.1 mm and 15.5 mm and 14.3 mm and 14.7 mm and 47 mm and 30 mm | Lesion size Day 28-long axis (acral lick granuloma [1]; [4]): 5 mm and 20 mm and 0 mm (2×) and 88.2 mm and 65.2 mm and 23.3 mm and 46.1 mm and 31.1 mm and 20.5 mm and 55 mm and 45 mm and 10 mm | Lesion size Day 28-short axis (acral lick granuloma [1]; [4]): 3 mm and 15 mm and 0 mm (2×) and 25.5 mm and 34.8 mm and 18 mm and 20.7 mm (2×) and 17.4 mm and 50 mm and 30 mm and 5 mm | CSOM Day 14 (sum of identified activities) (acral lick granuloma [2]; average of six dogs): 4.8 | CSOM Day 28 (sum of identified activities) (acral lick granuloma [2]; average of six dogs): 6.3 | CSOM Delta Day 14-baseline (acral lick granuloma [2]; average of six dogs): −3.0 | CSOM Delta Day 28-baseline (acral lick granuloma [2]; average of six dogs): −1.5 | CSOM Percent Change to Day 14 (acral lick granuloma [2]; average of six dogs): −41% | CSOM Percent Change to Day 28 (acral lick granuloma [2]; average of six dogs): −26% | benefit to dogs suffering from acral lick granuloma as indicated by CSOM results (acral lick granuloma [2]; conclusion in words): provided a benefit | CSOM Delta Day 14-baseline (acral lick granuloma [2]; individual dog): −1 (2×) and −2 and −6 and −4 (2×) | CSOM Delta Day 28-baseline (acral lick granuloma [2]; individual dog): −1 and 2 (2×) and −4 (3×) | CSOM Day 14 (sum of identified activities) (acral lick granuloma [2]; individual dog, Day 14 after s.c. injection, approx. 1.5 μg trans-capsaicin per mm^2 of lesion): 1 and 7 and 9 and 6 and 2 and 4 | CSOM Day 28 (sum of identified activities) (acral lick granuloma [2]; individual dog, Day 28 after s.c. injection): 1 and 11 and 12 and 8 and 2 and 4 | CSOM Percent Change to Day 14 (acral lick granuloma [2]; individual dog, vs baseline): −50% (3×) and −22% and −10% and −67% | CSOM Percent Change to Day 28 (acral lick granuloma [2]; individual dog, vs baseline): −50% (2×) and 22% and 20% and −33% and −67% | average reduction in CSOM at Day 14 compared with baseline (acral lick granuloma [2]; six dogs): 41% | average reduction in CSOM at Day 28 compared with baseline (acral lick granuloma [2]; six dogs): 26% | Lesion surface area (Adobe Acrobat) Delta Day 14-baseline (acral lick granuloma [3]; average of lesions): −91 | Lesion surface area (Adobe Acrobat) Delta Day 28-baseline (acral lick granuloma [3]; average of lesions): 3 | Lesion surface area (Adobe Acrobat) Percent Change Day 14 (acral lick granuloma [3]; average of lesions): −8% | Lesion surface area (Adobe Acrobat) Percent Change Day 28 (acral lick granuloma [3]; average of lesions): 7% | Total Size of Lesion at Day 14 (Adobe Acrobat XI measurement tool) (acral lick granuloma [3]; average of lesions): 462 sq mm | Total Size of Lesion at Day 28 (Adobe Acrobat XI measurement tool) (acral lick granuloma [3]; average of lesions): 557 sq mm | Lesion surface area (Adobe Acrobat) Delta Day 14-baseline (acral lick granuloma [3]; individual lesion): −4 and −924 and 37 and −146 and 25 and 282 and 290 and −230 and 106 and −103 and 81 and −503 | Lesion surface area (Adobe Acrobat) Delta Day 28-baseline (acral lick granuloma [3]; individual lesion): −62 and −924 and 76 and −260 and −136 and 594 and 1062 and −216 and 247 and −48 and 146 and −441 | Lesion surface area (Adobe Acrobat) Percent Change Day 14 (acral lick granuloma [3]; individual lesion): −1% and −100% and 19% and −56% and 18% and 29% and 78% and −73% and 22% and −25% and 39% and −42% | Lesion surface area (Adobe Acrobat) Percent Change Day 28 (acral lick granuloma [3]; individual lesion): −11% and −100% (3×) and 39% and 61% and 287% and −68% and 52% and −12% and 70% and −37% | Total Size of Lesion at Day 14 (Adobe Acrobat XI measurement tool) (acral lick granuloma [3]; individual lesion): 568 sq mm and 0 sq mm and 232 sq mm and 114 sq mm and 161 sq mm and 1252 sq mm and 660 sq mm and 86 sq mm and 579 sq mm and 303 sq mm and 290 sq mm and 704 sq mm | Total Size of Lesion at Day 28 (Adobe Acrobat XI measurement tool) (acral lick granuloma [3]; individual lesion): 509 sq mm and 0 sq mm (3×) and 271 sq mm and 1564 sq mm and 1432 sq mm and 100 sq mm and 720 sq mm and 358 sq mm and 355 sq mm and 766 sq mm
